Experiments:
HIF-1α [1] = experiment: Ubiquitination assay, TUBE pull-down of polyubiquitinated HIF-1α; type: cell-based, human; settings: HDF, hypoxia
Method: Given HIF-1α stability is known to be regulated at the protein level by ubiquitination, we investigated whether USP7 inhibition modulates HIF-1α polyubiquitination. […] Cells were harvested, lysed and polyubiquitinated proteins pulled down using two types of Tetra Ubiquitin Binding Entities (TUBES); with equal affinity for K48/K63 or 10 times more affinity for […]. Samples were analysed by immuno-blot using a HIF-1α antibody. […] These findings indicate that USP7 inhibition results in K48 polyubiquitination of HIF-1α and consequently, its proteasomal-mediated degradation.
Cells were lysed in a buffer containing 50 mM Tris-HCl, pH 7.5, 150 mM NaCl, 1 mM EDTA, 1% NP-40, 10% Glycerol, 50 mM NaF, 5 mM sodium pyrophosphate, 10 mM glycerol phosphate, 1 mM sodium orthovanadate, protease and phosphatase inhibitor tablet and 50 uM PR-619. Lysates were pre-cleared by centrifugation at 4° C. for 15 mins at 16,000× g and protein concentration determined using BCA method. 20 ul of samples was taken as input. Pre-cleared supernatant containing 0.5 mg of total protein was added to 20 ul equilibrated Agarose-TUBE 1 or TUBE 2 beads (Life Sensors) and incubated for 2 hours at 4° C. on a rocker platform. Beads were collected by low speed centrifugation (1000-5000× g, 4° C.) for 5 minutes and supernatant taken as FT. Beads were washed twice with 1 ml TBS-T (20 mM Tris-HCl, pH 8.0, 0.15M NaCl, 0.1% Tween-20) and collected by low speed centrifugation. Finally, beads were resuspended in 30 ul of SDS reducing sample buffer and boiled for 10 min at 95° C.

[2] = system: cancer cells, primary and immortalized fibroblasts; experiment: Cell proliferation assay (CellTiter-Glo viability); type: cell-based, human
Method: The functional impact of USP7-mediated decrease in VEGF secretion is not on fibroblast or cancer cell proliferation. […] After 72 hours cell viability was measured by Cell-Titer-Glo. The results were normalized to the control non-treated group (mean±SD, n=3).

[3] = system: primary fibroblast, immortalised fibroblast, endothelial cells and cancer cells; experiment: Proliferation by live cell time-lapse imaging; type: cell-based, human; settings: fibroblasts or endothelial cells
Method: During a proliferation assay, pictures were taken every 2 hours using a time-lapse microscope. Charts were used to display cell confluency over time.
To examine the effect of USP7 inhibition on proliferation of primary fibroblast, immortalised fibroblast, endothelial cells and cancer cells, live cell time-lapse imaging was used.

HUVEC = experiment: Matrigel tube formation assay; type: cell-based, human; settings: 6 hours
Method: FIG. 28: USP7 inhibition has no direct effect on HUVEC tube formation in vitro. […] The tube formation images were taken after 6 h after tube initiation.
Each well of a pre-chilled 96-well plate was coated with 50 μL of unpolymerized growth factor reduced Matrigel® (9.2 mg/mL) and incubated at 37° C. in 5% CO2 for 2 h. HUVECs were harvested with trypsin, and 1.5×10^4 cells were resuspended in 100 μL complete endothelial cell growth medium. […] After approximately 6 hours of incubation at 37° C. in 5% CO2, images of the center of each were taken at 4× magnification.

[4] = system: primary human dermal fibroblasts (HDF) co-cultured with stimulated PBMCs, with or without cancer cells (HT29 or H1299); settings: inhibitor concentration of 300 nM, 48 hours
Method: Biomarker changes relative to the vehicle control-treated systems are presented as log-transformed ratio.
BioMAP systems were employed using primary human cells. […] Human neonatal foreskin fibroblasts (HDFn) from 3 donors were pooled and cultured according to the supplier's (Lonza, Inc., Allendale, N.J.) recommendation. Peripheral blood mononuclear cells (PBMC) were prepared from buffy coats from normal human donors according to standard methods. Autoimmune HDFSAg system consisted of primary human dermal fibroblasts (HDF) co-cultured with PBMCs stimulated with T-cell receptor (SAg) to model chronic T cell activation and inflammation. Stromal Oncology Colorectal Cancer and Non-Small Cell Lung Cancer (NSCLC) panels were composed of cancer cells (HT29 or H1299), HDF and PBMCs stimulated with SAg. This model captures the interactions between tumour cells, stimulated immune cells and the host stromal network. […] Afterwards, biomarkers were measured in supernatants from co-cultures using ELISA as following: MCP-1, VCAM-1, Collagen I, IP-10, MMP-1, sIL-10, sIL-17A, sIL-17F, sIL-2, sIL-6, SRB, sTGFb, sTNFa, sVEGF, IL-8, MIG, MCSF, uPAR, Col-III, IP-10, EGFR, HGF, Pal-1, PBMC Cytotoxicity, tPA, uPA, sGranzyme, sPGE2, slFg, Sil-13, sMDC, Collagen III, MMP-9, TIMP-2, CEACAM5, Keratin 20. Biomarker levels are presented as log-transformed ratio

HIF-1α [5] = experiment: Cycloheximide chase assay, HIF-1α half-life
Method: Cells were lysed at the indicated time points (from 0 to 60 min) and samples analysed by immuno-blotting probing for HIF-1α. HIF-1α half-life was quantified by densitometry analysis. β-Actin was included as a normalization control.
Samples were subsequently collected at various time points for immuno-blot analysis probing for HIF-1α levels.
Cells were harvested and lysed at different time points and subjected to Western blot analysis using anti-HIF-1α antibody (D2U3T, Rabbit mAb #14179 Cell Signalling) and β-actin (Santa Cruz: A5316; 1:5000) as a loading control.

CT-26 tumours = experiment: Histology and immunofluorescence of CT-26 tumours (ADC-159); type: in vivo, mouse
Method: FIG. 36: ADC-159 prevents tumour vessel maturation in CT-26 syngeneic mouse model in vivo. FFPE tumour blocks were prepared after 15 days of treatment with vehicle and ADC-159 and co-stained with endothelial cell marker CD31 (green), pericyte marker NG2 (red) and DAPI (blue; n=5 blocks/group). Mature blood vessels have fine branching positive for CD31 and NG2 staining (A, left image) which is lost when treated with USP7 inhibitor (B, right image).
FIG. 37: ADC-159 decreases tumour area and increases necrosis area in the CT-26 syngeneic mouse model in vivo. […] FFPE tumour blocks were prepared followed by quantification of tumour and necrosis using HALO software.
After rinsing with running water, the specimens were transferred to the Vacuum Tissue Processor (HistoCore PEARL, Leica) for dehydration, then embedded into FFPE blocks using Tissue embedding center (EG1150, Leica). FFPE blocks were sectioned with a manual rotary microtome (RM2235, Leica), 4 μm thickness/section. Sections were processed for staining with hematoxylin and eosin (H&E) or for immunofluorescent (IF) analysis. For IF sections were stained with primary antibodies specific for CD31 (abcam), NG2 (sigma) and cell nuclei were counterstained with DAPI. All stained sections were scanned with Pannoramic Digital Slide Scanners for 40× magnification (3[…], Pannoram ic SCAN). All the images were analyzed with HALOTM platform were tumour area and large areas of necrosis were quantified. Non-tumour tissue on the periphery was excluded.

Oral availability = type: in vivo; settings: compared to AD-04
RS4; 11 = experiment: RS4;11 cell EC50; type: cell-based; settings: Homo sapiens
Ub-MDM2 = Ub-MDM2 MSD (HCT116); type: cell-based; settings: Homo sapiens, HCT-116
LogD7.4 = type: physicochemical; settings: pH 7.4
LM CLhep (h) = type: in vitro ADME, human
Hep CLhep (h) = type: in vitro ADME, human
Hep CLhep (m) = type: in vitro ADME, mouse
2C19 = 2C19 (Homo sapiens, UniProt P33261); experiment: Cyp inhibition 2C19; type: in vitro ADME; settings: read-out: Cyps: 2C19
2C19, sequence (P33261 whole entry): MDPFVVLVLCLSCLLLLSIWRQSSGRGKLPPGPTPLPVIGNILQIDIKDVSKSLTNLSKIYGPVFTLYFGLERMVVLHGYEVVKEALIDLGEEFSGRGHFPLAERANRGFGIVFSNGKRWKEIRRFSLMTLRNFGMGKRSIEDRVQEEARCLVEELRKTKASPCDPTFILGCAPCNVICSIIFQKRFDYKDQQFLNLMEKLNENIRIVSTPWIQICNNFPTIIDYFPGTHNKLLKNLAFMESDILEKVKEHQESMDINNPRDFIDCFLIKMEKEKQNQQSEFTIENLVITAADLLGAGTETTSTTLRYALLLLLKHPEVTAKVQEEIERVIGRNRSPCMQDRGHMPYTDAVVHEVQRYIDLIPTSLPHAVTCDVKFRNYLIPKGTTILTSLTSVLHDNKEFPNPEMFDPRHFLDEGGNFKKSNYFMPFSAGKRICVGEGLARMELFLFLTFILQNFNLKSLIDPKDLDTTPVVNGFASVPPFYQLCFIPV

C[C@H](CC(=O)N1CCC(O)(Cn2cnc3c(-c4ccc(CN)cc4)n(C)nc3c2=O)CC1)c1ccccc1 [AD-04, (R)-3-(4-(Aminomethyl)phenyl)-6-((4-hydroxy-1-(3-phenylbutanoyl)piperidin-4-yl)methyl)-2-methyl-2H-pyrazolo[4,3-d]pyrimidin-7(6H)-one]
K63 specific polyubiquitination of HIF-1α (HIF-1α [1]; versus DMSO control): no difference
K63/K48 polyubiquitinated HIF-1α (HIF-1α [1]; AD-04 1 μM, MG132 10 μM, 1 hour): enhanced the accumulation
sensitivity of cancer cell lines ([2]; HT29 and H1299 (data not shown)): insensitive
sensitivity of cancer cell lines ([2]; LNCaP and MCF-7 (data not shown)): sensitive
cell viability ([2]; high concentration, normoxia and hypoxia, 72 hours): do not affect cell viability
proliferation [3]: no effect
HUVEC tube formation on Matrigel (HUVEC): did not disrupt
decrease in secreted VEGF (sVEGF) [4]: 3 log fold
HIF-1α half-life (HIF-1α [5]; HDF, hypoxia, cycloheximide 100 μg/mL, AD-04 1 μM): 4 min
reduction of HIF-1α half-life (HIF-1α [5]; versus untreated cells (6 minutes and 36 seconds)): 40%

CC1(C(=O)N2CCC(O)(Cn3cnc4c(cc(Cl)n4-c4ccc5c(c4)CCO5)c3=O)CC2)CC1 [ADC-159, 6-Chloro-7-(2,3-dihydrobenzofuran-5-yl)-3-((4-hydroxy-1-(1-methylcyclopropane-1-carbonyl)piperidin-4-yl)methyl)-3,7-dihydro-4H-pyrrolo[2,3-d]pyrimidin-4-One]
necrosis area at the tumour site (CT-26 tumours; 100 mg/kg, compared to vehicle): significant increase
tumour area (CT-26 tumours; 100 mg/kg, compared to vehicle): significant reduction
tumour vessel formation (CD31/NG2 staining) (CT-26 tumours; 15 days of treatment): prevents tumour vessel formation
oral availability (Oral availability): improved oral availability
EC50 (RS4; 11): 165 nM
EC50 (Ub-MDM2): 93 nM
LogD7.4 (LogD7.4): 2.5
LM CLhep (h) (LM CLhep (h)): 9
Hep CLhep (h) (Hep CLhep (h)): 9
Hep CLhep (m) (Hep CLhep (m)): 78
IC50 (2C19): > 20000 nM
